Experimental data: patent US11986471B2, “Compounds and methods of use” (Tango Therapeutics, Inc., priority 2018, dated 2024)

What was measured:
PRMT5 [1] = molecular target: T1, PRMT5 (Homo sapiens, UniProt O14744); assay: PRMT5 IC50 assay in the presence of SAM as cofactor; format: biochemical
T1 construct: purchased Viva (custom protein)
Method in brief: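 Results given as IC50 (μM), from which Ki follows by dividing by 1.5 in the SAM condition or by 13.5 in the MTA condition. The ratio of SAM Ki to MTA Ki indicates MTA-cooperative preference.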

PRMT5 [2] = molecular target: T1, PRMT5; assay: PRMT5 IC50 assay with no cofactor; format: biochemical
Method in brief: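 Human PRMT5 inhibition, IC50 in μM; cofactor varied (SAM / MTA / none).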

PRMT5 [3] = molecular target: T1, PRMT5; assay: PRMT5 IC50 assay in the presence of MTA as cofactor; format: biochemical; settings: for IC50: PRMT5, MTA as cofactor
Method in brief: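 IC50 values were measured against human PRMT5 with SAM, with MTA, or with no cofactor. Ki was derived from IC50 as Ki=IC50/1.5 with SAM and Ki=IC50/13.5 with MTA, and the Ki(SAM)/Ki(MTA) ratio was then taken.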

HAP1 MTAP-intact = assay: SDMA in-cell western assay, HAP1 MTAP-intact cell line; format: cell-based; settings: Homo sapiens
Method in brief: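 IC50 values come from SDMA in-cell western staining of HAP1 cells. The MTAP-intact line carries endogenous MTAP, while its MTAP-deleted counterpart lacks MTAP entirely. A selectivity ratio of at least 3 fold marks a compound as MTAP-selective.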

HAP1 MTAP-deleted = assay: SDMA in-cell western assay, HAP1 MTAP-deleted cell line; format: cell-based; settings: for IC50: Homo sapiens, HAP1 MTAP-deleted cell line; for MTAP Intact/Deleted Ratio: IC50 ratio HAP1 MTAP-intact / HAP1 MTAP-deleted
Method in brief: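 Readout is cellular SDMA signal by in-cell western, with IC50 values derived from it. The cells are MTAP-null HAP1, matched to an isogenic MTAP-intact HAP1 line.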

[4] = ratio between the Ki in the presence of SAM and the Ki in the presence of MTA
[5] = ratio between Ki in the presence of SAM and Ki in the presence of MTA

T1 sequence (O14744 whole entry): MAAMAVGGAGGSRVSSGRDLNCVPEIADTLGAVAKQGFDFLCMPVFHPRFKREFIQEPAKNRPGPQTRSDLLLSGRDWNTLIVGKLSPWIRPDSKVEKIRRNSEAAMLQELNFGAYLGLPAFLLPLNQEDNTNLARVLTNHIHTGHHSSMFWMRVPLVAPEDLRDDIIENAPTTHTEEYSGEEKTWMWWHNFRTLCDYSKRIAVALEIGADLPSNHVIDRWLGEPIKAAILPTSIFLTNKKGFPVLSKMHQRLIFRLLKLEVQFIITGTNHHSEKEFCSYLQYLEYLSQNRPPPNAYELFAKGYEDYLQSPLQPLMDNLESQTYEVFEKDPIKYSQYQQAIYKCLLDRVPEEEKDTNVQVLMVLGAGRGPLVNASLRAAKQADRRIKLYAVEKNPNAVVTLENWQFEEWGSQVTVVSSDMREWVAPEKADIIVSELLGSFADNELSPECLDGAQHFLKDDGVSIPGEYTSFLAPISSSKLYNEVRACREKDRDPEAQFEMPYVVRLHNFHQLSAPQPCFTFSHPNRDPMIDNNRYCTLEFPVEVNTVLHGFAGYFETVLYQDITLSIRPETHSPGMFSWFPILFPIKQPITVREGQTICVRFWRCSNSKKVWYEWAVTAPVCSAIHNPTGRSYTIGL
T1 sequence (Q9BQA1 whole entry partner): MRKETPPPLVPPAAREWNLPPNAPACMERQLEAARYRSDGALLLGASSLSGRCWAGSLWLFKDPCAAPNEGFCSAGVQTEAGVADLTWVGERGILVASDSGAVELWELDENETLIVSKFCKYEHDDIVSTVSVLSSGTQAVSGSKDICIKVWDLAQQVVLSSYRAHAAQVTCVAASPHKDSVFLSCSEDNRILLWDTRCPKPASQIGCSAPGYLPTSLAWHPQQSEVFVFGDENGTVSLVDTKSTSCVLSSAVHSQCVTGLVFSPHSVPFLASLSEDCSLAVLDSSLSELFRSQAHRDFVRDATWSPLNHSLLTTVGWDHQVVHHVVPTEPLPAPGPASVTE

Row | SMILES | IC50 (PRMT5 [1]) [nM] | IC50 (PRMT5 [2]) [nM] | IC50 (PRMT5 [3]) [nM] | IC50 (HAP1 MTAP-intact) [nM] | IC50 (HAP1 MTAP-deleted) [nM] | IC50 (PRMT5 [2]; read-out: No Co-factor IC50) [nM] | SAM/MTA Ratio (PRMT5 [3]; [4]) | MTAP Intact/Deleted Ratio (HAP1 MTAP-deleted) | SAM/MTA Ratio (PRMT5 [3]; [5])
1 | O=C(NC[C@H](O)CN1CCc2c(ccc(OCc3cnco3)c2Cl)C1)c1cc(NC2CCC2)nc(N2CCNCC2)c1 [Compound 464, (S)—N-(3-(5-chloro-6-(oxazol-5-ylmethoxy)-3,4-dihydroisoquinolin-2(1H)-yl)-2-hydroxypropyl)-2-(cyclobutylamino)-6-(piperazin-1-yl)isonicotinamide] | 50 to 500 | 500 to 5000 | 50 to 500 | ≥ 10000 | ≥ 10000 | – | A (a Ki ratio greater than or equal to 10 fold between the Ki in the presence of SAM and the Ki in the presence of MTA) | C* (an IC50 ratio of less than 3 fold between the IC50 in the HAP1 MTAP-intact cell line and the HAP1 MTAP-deleted cell line) | –
2 | O=C(NC[C@H](O)CN1CCc2c(ccc(OCc3cnco3)c2Cl)C1)c1ccc(OC2CCN(Cc3ccccc3)CC2)cc1 [Compound 330, (S)-4-((1-benzylpiperidin-4-yl)oxy)-N-(3-(5-chloro-6-(oxazol-5-ylmethoxy)-3,4-dihydroisoquinolin-2(1H)-yl)-2-hydroxypropyl)benzamide] | 50 to 500 | – | 50 to 500 | ≥ 10000 | ≥ 10000 | 500 to 5000 | – | C* (an IC50 ratio of less than 3 fold between the IC50 in the HAP1 MTAP-intact cell line and the HAP1 MTAP-deleted cell line) | A (a Ki ratio greater than or equal to 10 fold between the Ki in the presence of SAM and the Ki in the presence of MTA)
3 | Cc1ncoc1COc1ccc2c(c1C)CCN(C[C@@H](O)CNC(=O)c1cc(NC3COC3)nc(N3CCOCC3)n1)C2 [Compound 423, N-[(2S)-2-hydroxy-3-{5-methyl-6-[(4-methyl-1,3-oxazol-5-yl)methoxy]-1,2,3,4-tetrahydroisoquinolin-2-yl}propyl]-2-(morpholin-4-yl)-6-[(oxetan-3-yl)amino]pyrimidine-4-carboxamide] | 500 to 5000 | – | 50 to 500 | ≥ 10000 | 1000 to 10000 | ≥ 5000 | – | C* (an IC50 ratio of less than 3 fold between the IC50 in the HAP1 MTAP-intact cell line and the HAP1 MTAP-deleted cell line) | A (a Ki ratio greater than or equal to 10 fold between the Ki in the presence of SAM and the Ki in the presence of MTA)
4 | Cc1ncoc1COc1ccc2c(c1)CCN(C[C@@H](O)CNC(=O)c1cc(NC3CCC3)nc(N3C4CCC3COC4)c1)C2 [Compound 598] | 50 to 500 | 500 to 5000 | 50 to 500 | < 1000 | < 1000 | – | A (a Ki ratio greater than or equal to 10 fold between the Ki in the presence of SAM and the Ki in the presence of MTA) | C* (an IC50 ratio of less than 3 fold between the IC50 in the HAP1 MTAP-intact cell line and the HAP1 MTAP-deleted cell line) | –
5 | Cc1ncoc1COc1ccc2c(c1C)CCN(C[C@@H](O)CNC(=O)c1ccnc(NC3CCC3)c1)C2 [Compound 272, (S)-2-(cyclobutylamino)-N-(2-hydroxy-3-[5-methyl-6-((4-methyloxazol-5-yl)methoxy)-3N-dihydroisoquinolin-2(1H)-yl)propyl)isonicotinamide] | 50 to 500 | – | 50 to 500 | ≥ 10000 | 1000 to 10000 | ≥ 5000 | – | C* (an IC50 ratio of less than 3 fold between the IC50 in the HAP1 MTAP-intact cell line and the HAP1 MTAP-deleted cell line) | A (a Ki ratio greater than or equal to 10 fold between the Ki in the presence of SAM and the Ki in the presence of MTA)
6 | O=C(NC[C@H](O)CN1CCc2c(ccc(OCc3cnco3)c2Cl)C1)c1cc(NC2COC2)nc(N2CCOCC2)n1 [Compound 298, (S)—N-(3-(5-chloro-6-(oxazol-5-ylmethoxy)-3,4-dihydroisoquinolin-2(1H)-yl)-2-hydroxypropyl)-2-morpholino-6-(oxetan-3-ylamino)pyrimidine-4-carboxamide] | 500 to 5000 | – | 500 to 5000 | ≥ 10000 | 1000 to 10000 | ≥ 5000 | – | C* (an IC50 ratio of less than 3 fold between the IC50 in the HAP1 MTAP-intact cell line and the HAP1 MTAP-deleted cell line) | A (a Ki ratio greater than or equal to 10 fold between the Ki in the presence of SAM and the Ki in the presence of MTA)
7 | Cc1ncoc1COc1ccc2c(c1)CCN(C[C@@H](O)CNC(=O)c1cc(NC3CCC3)nc(OCCN(C)C)c1)C2 [Compound 406, 2-(cyclobutylamino)-6-[2-(dimethylamino)ethoxy]-N-[(2S)-2-hydroxy-3-{6-[(4-methyl-1,3-oxazol-5-yl)methoxy]-1,2,3,4-tetrahydroisoquinolin-2-yl}propyl]pyridine-4-carboxamide] | 50 to 500 | – | < 50 | < 1000 | < 1000 | 500 to 5000 | – | B* (an IC50 ratio greater than or equal to 3 fold but lower than 10 fold between the IC50 in the HAP1 MTAP-intact cell line and the HAP1 MTAP-deleted cell line) | A (a Ki ratio greater than or equal to 10 fold between the Ki in the presence of SAM and the Ki in the presence of MTA)
8 | CC(C)Cc1cc(C(=O)NC[C@H](O)CN2CCc3c(ccc(OCc4cnco4)c3Cl)C2)cc(NC2CCC2)n1 [Compound 287] | 500 to 5000 | – | 500 to 5000 | ≥ 10000 | ≥ 10000 | ≥ 5000 | – | C* (an IC50 ratio of less than 3 fold between the IC50 in the HAP1 MTAP-intact cell line and the HAP1 MTAP-deleted cell line) | A (a Ki ratio greater than or equal to 10 fold between the Ki in the presence of SAM and the Ki in the presence of MTA)

More lines, main results first:

Row | IC50 (PRMT5 [1]) [nM] | IC50 (PRMT5 [2]) [nM] | IC50 (PRMT5 [3]) [nM] | IC50 (HAP1 MTAP-intact) [nM] | IC50 (HAP1 MTAP-deleted) [nM] | IC50 (PRMT5 [2]; read-out: No Co-factor IC50) [nM] | SMILES | SAM/MTA Ratio (PRMT5 [3]; [4]) | MTAP Intact/Deleted Ratio (HAP1 MTAP-deleted) | SAM/MTA Ratio (PRMT5 [3]; [5])
9 | 50 to 500 | 500 to 5000 | 50 to 500 | ≥ 10000 | 1000 to 10000 | – | Cc1c(OCc2cnco2)ccc2c1CCN(C[C@@H](O)CNC(=O)c1cc(NC3CCN(C(=O)CC(C)C)CC3)ncn1)C2 [Compound 528] | A (a Ki ratio greater than or equal to 10 fold between the Ki in the presence of SAM and the Ki in the presence of MTA) | C* (an IC50 ratio of less than 3 fold between the IC50 in the HAP1 MTAP-intact cell line and the HAP1 MTAP-deleted cell line) | –
10 | 50 to 500 | 500 to 5000 | 50 to 500 | ≥ 10000 | < 1000 | – | CCCC(=O)N1CCC(Nc2cc(C(=O)NC[C@H](O)CN3CCc4c(ccc(OCc5cnco5)c4C)C3)ccn2)CC1 [Compound 470, (S)-2-((1-butyrylpiperidin-4-yl)amino)-N-(2-hydroxy-3-(5-methyl-6-(oxazol-5-ylmethoxy)-3,4-dihydroisoquinolin-2(1H)-yl)propyl)isonicotinamide] | A (a Ki ratio greater than or equal to 10 fold between the Ki in the presence of SAM and the Ki in the presence of MTA) | A* (an IC50 ratio greater than or equal to 10 fold between the IC50 in the HAP1 MTAP-intact cell line and the HAP1 MTAP-deleted cell line) | –
11 | 50 to 500 | 500 to 5000 | 50 to 500 | 1000 to 10000 | < 1000 | – | CCC(=O)N1CCC(Nc2cc(C(=O)NC[C@H](O)CN3CCc4cc(OCc5cnco5)ccc4C3)ccn2)CC1 [Compound 460, N-[(2S)-2-hydroxy-3-[6-(oxazol-5-ylmethoxy)-3,4-dihydro-1H-isoquinolin-2-yl]propyl]-2-[(1-propanoyl-4-piperidyl)amino]pyridine-4-carboxamide] | A (a Ki ratio greater than or equal to 10 fold between the Ki in the presence of SAM and the Ki in the presence of MTA) | B* (an IC50 ratio greater than or equal to 3 fold but lower than 10 fold between the IC50 in the HAP1 MTAP-intact cell line and the HAP1 MTAP-deleted cell line) | –
12 | 500 to 5000 | – | 500 to 5000 | ≥ 10000 | ≥ 10000 | ≥ 5000 | CC(=O)N1CCC(Nc2cc(C(=O)NC[C@@H](O)CN3CCc4cc(OCc5ocnc5C)ccc4C3)ncn2)CC1 [Compound 249, (R)-6-((1-acetylpiperidin-4-yl)amino)-N-(2-hydroxy-3-(6-((4-methyloxazol-5-yl)methoxy)-3N-dihydroisoquinolin-2(1H)-yl)propyl)pyrimidine-4-carboxamide] | – | C* (an IC50 ratio of less than 3 fold between the IC50 in the HAP1 MTAP-intact cell line and the HAP1 MTAP-deleted cell line) | A (a Ki ratio greater than or equal to 10 fold between the Ki in the presence of SAM and the Ki in the presence of MTA)
13 | 50 to 500 | – | 50 to 500 | ≥ 10000 | ≥ 10000 | ≥ 5000 | Cc1c(OCc2cnco2)ccc2c1CCN(C[C@@H](O)CNC(=O)c1ccnc(NC3CCCC3)c1)C2 [Compound 356, 2-(cyclopentylamino)-N-[(2S)-2-hydroxy-3-{5-methyl-6-[(1,3-oxazol-5-yl)methoxy]-1,2,3,4-tetrahydroisoquinolin-2-yl}propyl]pyridine-4-carboxamide] | – | C* (an IC50 ratio of less than 3 fold between the IC50 in the HAP1 MTAP-intact cell line and the HAP1 MTAP-deleted cell line) | A (a Ki ratio greater than or equal to 10 fold between the Ki in the presence of SAM and the Ki in the presence of MTA)
